Source: US10272056B2, “Treatment for mitochondrial diseases” (The George Washington University a Congressionally …, priority 2015, dated 2019)

Experiments:
Format in all cases: cell-based
[1] = tested on: NRF-1; test: Quantitative immunoblot analysis of NRF-1; conditions: NaBt treatment, PC12-ND6
Excerpt: FIG. 11A-11D are images from microscopy and graphs showing NaBt promotes mtDNA replication via the NRF-1/Tfam axis. (A) Confocal analysis of mtDNA foci; scale bar=5 (B) Quantitative analysis of mtDNA copy number by PCR; *p<0.001. (C, D) Quantitative immunoblot analysis of NRF-1 and Tfam; *p<0.001.
NaBt enhances mtDNA replication via the PGC1α-mediated NRF-1/Tfam axis. It was investigated whether NaBt enhanced mtDNA replication using the PicoGreen® dye to label mtDNA. PC12-ND6 cells were transfected with the mito-dsRed vector prior to NaBt treatment followed by PicoGreen® staining. […] To corroborate enhanced mitochondrial biogenesis, two key target genes of PGC1α were examined, the NRF-1 transcription factor and its direct target gene Tfam, both essential for mitochondrial biogenesis. […] The findings confirm the NaBt-mediated modulation of mitochondrial biogenesis and mtDNA replication in neuronal cells.

[2] = tested on: PC12-ND6 cells; test: Neurite outgrowth with dbcAMP
Procedure: FIG. 13A-13E are images from microscopy and graphs showing that the timing of NaBt treatment is critical for enhancing neuronal differentiation of PC12-ND6 cells upon sub-optimal neurotrophic cues. (A) Confocal micrographs of PC12-ND6 cells treated with dbcAMP alone or with NaBt (5 mM) in a simultaneous or sequential manner. Scale bar represents 5 μm. (B) Graph of neurite length. Mean±SEM (n=50 for each condition; compared to control (no NaBt) *p=0.0001 and **p=0.0009). (C) Confocal micrographs of PC12-ND6 cells treated with sub-optimal NGF concentration (10 ng/ml) alone or first NaBt (5 mM) in a simultaneous or sequential manner. Scale bar represents 10 μm. (D) Graph of average total neurite length. Mean±SEM (n=50 for each condition; compared to control *p=0.0001). (E) Graph of the frequency of total neurite length below and above 90 μm.
The timing of NaBt pre-treatment is critical for enhancing neuronal differentiation of PC12-ND6 cells and potentiating sub-optimal neurotrophic cues. We next investigated whether NaBt-mediated increase of mitochondrial biogenesis could potentiate subsequent sub-optimal neurotrophic cues to trigger effective neurite outgrowth in PC12-ND6 cells and whether a temporal window for NaBt responsiveness might exist. […]

[3] = tested on: E17.5 hippocampal neurons; test: Cellular viability of neurons exposed to NaBt; conditions: 2 mM NaBt

With `CCCC(=O)[O-].[Na+]` [NaBt, sodium butyrate] the NRF-1 expression [1] was “increased on day 1”, the neuritogenesis upon co-addition ([2]; NaBt 5 mM and dbcAMP 1 mM added together) was “severely dampened” and the neurite length ([2]; NaBt pre-treatment three days at highest dose, then dbcAMP 1 mM 24 hours) was 50 μm. The cellular viability [3] was “without affecting cellular viability”.
